Laboratory results: patent publication US12077503B2, “Substituted cyclic amides and their use as herbicides” (FMC CORPORATION, priority 2015, dated 2024)

Tests used:
Type in all cases: in vivo
[1] = system: ryegrass, Italian (Italian ryegrass, Lolium multiflorum); experiment: Test A preemergence; details: for Plant response rating, Ryegrass, Italian: 125 g ai/ha, preemergence, 0 to 100 scale (0 no effect, 100 complete control); for Ryegrass, Italian plant response rating (0 to 100 scale): Preemergence, 500 g ai/ha, 0 is no effect, 100 is complete control
How it was run: (§1)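 Visual injury scores from 0, no effect, to 100, complete control, were assigned versus untreated controls roughly 10 d after treatment in the greenhouse. Test chemicals, formulated with surfactant in a non-phytotoxic solvent, were applied to planted seeds as a preemergence soil spray or postemergence to one- to two-leaf plants 2 to 10 cm tall, in loam–sand soil.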

[2] = system: giant foxtail (Setaria faberii); experiment: Test A preemergence; details: for Plant response rating, Foxtail, Giant: 125 g ai/ha, preemergence, 0 to 100 scale (0 no effect, 100 complete control); for Foxtail, Giant plant response rating (0 to 100 scale): Preemergence, 500 g ai/ha, 0 is no effect, 100 is complete control
How it was run: as §1

[3] = system: ragweed (common ragweed, Ambrosia elatior); experiment: Test A preemergence; details: for Plant response rating, Ragweed: 125 g ai/ha, preemergence, 0 to 100 scale (0 no effect, 100 complete control); for Ragweed plant response rating (0 to 100 scale): Preemergence, 500 g ai/ha, 0 is no effect, 100 is complete control
How it was run: as §1

Kochia (Kochia scoparia) [4] = experiment: Test A preemergence; details: for Plant response rating, Kochia: 125 g ai/ha, preemergence, 0 to 100 scale (0 no effect, 100 complete control); for Kochia plant response rating (0 to 100 scale): Preemergence, 500 g ai/ha, 0 is no effect, 100 is complete control
How it was run: as §1

[5] = system: barnyardgrass (Echinochloa crus-galli); experiment: Test A preemergence; details: for Plant response rating, Barnyardgrass: 125 g ai/ha, preemergence, 0 to 100 scale (0 no effect, 100 complete control); for Barnyardgrass plant response rating (0 to 100 scale): Preemergence, 500 g ai/ha, 0 is no effect, 100 is complete control
How it was run: as §1

[6] = system: pigweed (Amaranthus retroflexus); experiment: Test A preemergence; details: for Plant response rating, Pigweed: 125 g ai/ha, preemergence, 0 to 100 scale (0 no effect, 100 complete control); for Pigweed plant response rating (0 to 100 scale): Preemergence, 500 g ai/ha, 0 is no effect, 100 is complete control
[7] = system: ryegrass, Italian (Italian ryegrass, Lolium multiflorum); experiment: Test A postemergence; details: postemergence; for Ryegrass, Italian plant response rating: 125 g ai/ha, visual injury rating on 0 to 100 scale (0 no effect, 100 complete control), approx. 10 d; for Plant response rating, Ryegrass, Italian: 500 g ai/ha, 0 to 100 scale, 0 no effect, 100 complete control
How it was run: as §1

corn (Zea mays) = experiment: Test A postemergence; details: postemergence; for Corn plant response rating: 125 g ai/ha, visual injury rating on 0 to 100 scale (0 no effect, 100 complete control), approx. 10 d; for Plant response rating, Corn: 500 g ai/ha, 0 to 100 scale, 0 no effect, 100 complete control
How it was run: as §1

[8] = system: giant foxtail (Setaria faberii); experiment: Test A postemergence; details: postemergence; for Foxtail, Giant plant response rating: 125 g ai/ha, visual injury rating on 0 to 100 scale (0 no effect, 100 complete control), approx. 10 d; for Plant response rating, Foxtail, Giant: 500 g ai/ha, 0 to 100 scale, 0 no effect, 100 complete control
How it was run: as §1

[9] = system: ragweed (common ragweed, Ambrosia elatior); experiment: Test A postemergence; details: postemergence; for Ragweed plant response rating: 125 g ai/ha, visual injury rating on 0 to 100 scale (0 no effect, 100 complete control), approx. 10 d; for Plant response rating, Ragweed: 500 g ai/ha, 0 to 100 scale, 0 no effect, 100 complete control
How it was run: as §1

Kochia (Kochia scoparia) [10] = experiment: Test A postemergence; details: postemergence; for Kochia plant response rating: 125 g ai/ha, visual injury rating on 0 to 100 scale (0 no effect, 100 complete control), approx. 10 d; for Plant response rating, Kochia: 500 g ai/ha, 0 to 100 scale, 0 no effect, 100 complete control
How it was run: as §1

[11] = system: Galium (catchweed bedstraw, Galium aparine); experiment: Test A postemergence; details: postemergence; for Galium plant response rating: 125 g ai/ha, visual injury rating on 0 to 100 scale (0 no effect, 100 complete control), approx. 10 d; for Plant response rating, Galium: 500 g ai/ha, 0 to 100 scale, 0 no effect, 100 complete control
How it was run: as §1

[12] = system: barnyardgrass (Echinochloa crus-galli); experiment: Test A postemergence
How it was run: as §1

[13] = system: wheat (Triticum aestivum); experiment: Test A postemergence; details: postemergence; for Wheat plant response rating: 125 g ai/ha, visual injury rating on 0 to 100 scale (0 no effect, 100 complete control), approx. 10 d; for Plant response rating, Wheat: 500 g ai/ha, 0 to 100 scale, 0 no effect, 100 complete control
How it was run: as §1

[14] = system: blackgrass (Alopecurus myosuroides); experiment: Test A postemergence
How it was run: as §1

[15] = system: pigweed (Amaranthus retroflexus); experiment: Test A postemergence; details: postemergence; for Pigweed plant response rating: 125 g ai/ha, visual injury rating on 0 to 100 scale (0 no effect, 100 complete control), approx. 10 d; for Plant response rating, Pigweed: 500 g ai/ha, 0 to 100 scale, 0 no effect, 100 complete control
How it was run: as §1

rice (Oryra sativa) = experiment: Test B flooded paddy test; details: Flood, 500 g ai/ha; 0 to 100 scale where 0 is no effect and 100 is complete control; 13 to 15 d
How it was run: (§2)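 Response scored visually against untreated controls, 0 = no effect and 100 = complete control, 13–15 d after treatment in the greenhouse. Compounds added to paddy water held 3 cm above soil surface. Treatment given at 2-leaf stage.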

[16] = system: ducksalad (Heteranthera limosa); experiment: Test B flooded paddy test; details: Flood, 500 g ai/ha; 0 to 100 scale where 0 is no effect and 100 is complete control; 13 to 15 d
How it was run: as §2

[17] = system: barnyardgrass (Echinochloa crus-galli); experiment: Test B flooded paddy test; details: Flood, 500 g ai/ha; 0 to 100 scale where 0 is no effect and 100 is complete control; 13 to 15 d
How it was run: as §2

[18] = system: sedge, umbrella (small-flower umbrella sedge, Cyperus difformis); experiment: Test B flooded paddy test; details: Flood, 500 g ai/ha; 0 to 100 scale where 0 is no effect and 100 is complete control; 13 to 15 d
How it was run: as §2

[19] = 500 g ai/ha, postemergence, 0 to 100 scale, 0 no effect, 100 complete control
[20] = Postemergence, 125 g ai/ha, visual injury, 0 to 100 scale (0 no effect, 100 complete control), approx. 10 d

Row | SMILES | Plant response rating, Ryegrass, Italian [1] | Ryegrass, Italian plant response rating (0 to 100 scale) [1] | Plant response rating, Foxtail, Giant [2] | Foxtail, Giant plant response rating (0 to 100 scale) [2] | Plant response rating, Ragweed [3] | Ragweed plant response rating (0 to 100 scale) [3] | Plant response rating, Kochia (Kochia (Kochia scoparia) [4]) | Kochia plant response rating (0 to 100 scale) (Kochia (Kochia scoparia) [4]) | Plant response rating, Barnyardgrass [5] | Barnyardgrass plant response rating (0 to 100 scale) [5] | Plant response rating, Pigweed [6] | Pigweed plant response rating (0 to 100 scale) [6] | Ryegrass, Italian plant response rating [7] | Plant response rating, Ryegrass, Italian [7] | Corn plant response rating (corn (Zea mays)) | Plant response rating, Corn (corn (Zea mays)) | Foxtail, Giant plant response rating [8] | Plant response rating, Foxtail, Giant [8] | Ragweed plant response rating [9] | Plant response rating, Ragweed [9] | further results
1 | O=C1NCC(c2cccc(OCC(F)F)c2)C1C(=O)Nc1ccc(F)cc1F (stereo not drawn) [Compound 388] | 0 | 0 | 80 | 90 | 0 | 0 | 0 | 0 | 60 | 80 | 0 | 0 | 0 | 0 | 0 | 0 | 50 | 80 | 0 | 0 | Kochia plant response rating (Kochia (Kochia scoparia) [10]): 0; Plant response rating, Kochia (Kochia (Kochia scoparia) [10]): 0; Galium plant response rating [11]: 0; Plant response rating, Galium [11]: 30; Plant response rating, Barnyardgrass [12, 19]: 70; Plant response rating, Barnyardgrass [12, 20]: 30; Wheat plant response rating [13]: 0; Plant response rating, Wheat [13]: 0; Plant response rating, Blackgrass [14, 19]: 50; Plant response rating, Blackgrass [14, 20]: 10; Pigweed plant response rating [15]: 0; Plant response rating, Pigweed [15]: 0; Plant response rating, Rice (rice (Oryra sativa)): 0; Plant response rating, Ducksalad [16]: 75; Plant response rating, Barnyardgrass [17]: 0; Plant response rating, Sedge, Umbrella [18]: 0
2 | O=C1NCC(c2cccc(OCC(F)F)c2)C1C(=O)Nc1ccccc1Cl (stereo not drawn) [Compound 390] | 0 | 0 | 80 | 90 | 0 | 0 | 0 | 0 | 60 | 80 | 0 | 0 | 0 | 10 | 0 | 0 | 60 | 80 | 0 | 0 | Kochia plant response rating (Kochia (Kochia scoparia) [10]): 0; Plant response rating, Kochia (Kochia (Kochia scoparia) [10]): 0; Galium plant response rating [11]: 0; Plant response rating, Galium [11]: 0; Plant response rating, Barnyardgrass [12, 19]: 70; Plant response rating, Barnyardgrass [12, 20]: 50; Wheat plant response rating [13]: 0; Plant response rating, Wheat [13]: 0; Plant response rating, Blackgrass [14, 19]: 0; Plant response rating, Blackgrass [14, 20]: 0; Pigweed plant response rating [15]: 0; Plant response rating, Pigweed [15]: 20; Plant response rating, Rice (rice (Oryra sativa)): 0; Plant response rating, Ducksalad [16]: 65; Plant response rating, Barnyardgrass [17]: 50; Plant response rating, Sedge, Umbrella [18]: 0
